Source: patent US20240228535A1 (priority 2022, published 2024)

Target: SARS2 coronavirus 3CL protease (Severe acute respiratory syndrome coronavirus 2, UniProt P0DTD1)
Experiment: biochemical
Settings: 5 nM enzyme, 30 min pre-incubation with compound, 15 μM peptide substrate, 4 h at room temperature; read-out: FRET Potency (nM); IC50 values in the SARS2 3CLPro FRET assay

In order of falling IC50:
1. O=C(NC1CC1)C(=O)[C@H](C[C@@H]1CCNC1=O)NC(=O)c1cc(F)ccc1NC(=O)C1(C(F)(F)F)CC1 [Example 12, N-[(1S)-3-(cyclopropylamino)-2,3-dioxo-1-[[(3S)-2-oxopyrrolidin-3-yl]methyl]propyl]-5-fluoro-2-[[1-(trifluoromethyl)cyclopropane-carbonyl]amino]benzamide]  48.2 nM
2. CNC(=O)C(=O)[C@H](C[C@@H]1C[C@@H](C)NC1=O)NC(=O)c1cc(Cl)ccc1NC(=O)C1CC1(F)F (single isomer, unassigned) [Example 14]  46.4 nM
3. C[C@@H]1C[C@@H](C[C@H](NC(=O)c2cc(Cl)ccc2NC(=O)C(C)(C)C(F)(F)F)C(=O)C(=O)NC2CC2)C(=O)N1 [Example 15, 5-chloro-N-[(1S)-3-(cyclopropylamino)-1-[[(3S,5R)-5-methyl-2-oxo-pyrrolidin-3-yl]methyl]-2,3-dioxo-propyl]-2-[(3,3,3-trifluoro-2,2-dimethyl-propanoyl)amino]benzamide]  33.5 nM
4. CNC(=O)C(=O)[C@H](C[C@@H]1C[C@@H](C)NC1=O)NC(=O)c1cc(Cl)ccc1NC(=O)C1CCC(F)(F)C1 (single isomer, unassigned) [Example 16]  31.6 nM
5. C[C@@H]1C[C@@H](C[C@H](NC(=O)c2cc(C#N)ccc2NC(=O)C23CC(C(F)(F)F)(C2)C3)C(=O)C(=O)NC2CC2)C(=O)N1 [Example 17]  31.1 nM
6. C[C@@H]1C[C@@H](C[C@H](NC(=O)c2cc(Cl)ccc2NC(=O)N(C)C)C(=O)C(=O)NC2CC2)C(=O)N1 [Example 148, 5-chloro-N-[(1S)-3-(cyclopropylamino)-1-[[(3S,5R)-5-methyl-2-oxo-pyrrolidin-3-yl]methyl]-2,3-dioxo-propyl]-2-(dimethylcarbamoylamino) benzamide]  24.7 nM
7. C[C@@H]1C[C@@H](C[C@H](NC(=O)c2cc(Cl)ccc2NC(=O)C2CC2C(F)(F)F)C(=O)C(=O)NC2CC2)C(=O)N1 (stereo partly drawn) [Example 84, 5-chloro-N-[(1S)-3-(cyclopropylamino)-1-[[(3S,5R)-5-methyl-2-oxo-pyrrolidin-3-yl]methyl]-2,3-dioxo-propyl]-2-[[2-(trifluoromethyl)cyclopropane-carbonyl]amino]benzamide]  20.6 nM
8. C[C@@H]1C[C@@H](C[C@H](NC(=O)c2cc(Cl)ccc2NC(=O)CCC(F)(F)F)C(=O)C(=O)NCc2ccncc2)C(=O)N1 [Example 114, 5-chloro-N-[(1S)-1-[[(3S,5R)-5-methyl-2-oxo-pyrrolidin-3-yl]methyl]-2,3-dioxo-3-(4-pyridylmethylamino)propyl]-2-(4,4,4-trifluorobutanoylamino) benzamide]  18.9 nM
9. CNC(=O)C(=O)[C@H](C[C@@H]1C[C@@H](C)NC1=O)NC(=O)c1cc(Cl)ccc1NC(=O)C(C)C(F)(F)F (stereo partly drawn) [Example 24, 5-chloro-N-[(1S)-3-(methylamino)-1-[[(3S,5R)-5-methyl-2-oxo-pyrrolidin-3-yl]methyl]-2,3-dioxo-propyl]-2-[(3,3,3-trifluoro-2-methyl-propanoyl)amino]benzamide]  18.6 nM
10. CNC(=O)C(=O)[C@H](C[C@@H]1C[C@@H](C)NC1=O)NC(=O)c1cc(F)cnc1NC(=O)c1cccc(C(F)(F)F)c1 [Example 28, 5-fluoro-N-[(1S)-3-(methylamino)-1-[[(3S,5R)-5-methyl-2-oxo-pyrrolidin-3-yl]methyl]-2,3-dioxo-propyl]-2-[[3-(trifluoromethyl)benzoyl]amino]pyridine-3-carboxamide]  13.2 nM
11. C[C@@H]1C[C@@H](C[C@H](NC(=O)c2cc(F)c(F)cc2NC(=O)c2cncc(C(F)(F)F)c2)C(=O)C(=O)NC2CC2)C(=O)N1 [Example 99, N-[2-[[(1S)-3-(cyclopropylamino)-1-[[(3S,5R)-5-methyl-2-oxo-pyrrolidin-3-yl]methyl]-2,3-dioxo-propyl]carbamoyl]-4,5-difluoro-phenyl]-5-(trifluoromethyl)pyridine-3-carboxamide]  13 nM
12. CNC(=O)C(=O)[C@H](C[C@@H]1CCNC1=O)NC(=O)c1cc(Cl)ccc1NC(=O)c1ccnc(C(F)(F)F)c1 [Example 90]  12.3 nM
13. O=C(NC1CC1)C(=O)[C@H](C[C@@H]1CCNC1=O)NC(=O)c1cc(Cl)ccc1NC(=O)[C@H]1CC1(F)F [Example 168]  12 nM
14. CNC(=O)C(=O)[C@H](C[C@@H]1C[C@@H](C)NC1=O)NC(=O)c1cc(Cl)ccc1NC(=O)C1(CC(F)(F)F)CC1 [Example 202, 5-chloro-N-[(1S)-3-(methylamino)-1-[[(3S,5R)-5-methyl-2-oxo-pyrrolidin-3-yl]methyl]-2,3-dioxo-propyl]-2-[[1-(2,2,2-trifluoroethyl)cyclopropane-carbonyl]amino]benzamide]  11.9 nM
15. CNC(=O)C(=O)[C@H](C[C@@H]1C[C@@H](C)NC1=O)NC(=O)c1cc(Cl)ccc1NC(=O)C1CN(C)C1 [Example 149, N-[4-chloro-2-[[(1S)-3-(methylamino)-1-[[(3S,5R)-5-methyl-2-oxo-pyrrolidin-3-yl]methyl]-2,3-dioxo-propyl]carbamoyl]phenyl]-1-methyl-azetidine-3-carboxamide]  10.8 nM
16. C[C@@H]1C[C@@H](C[C@H](NC(=O)c2cc(Cl)ccc2NC(=O)c2cncc(C(F)(F)F)c2)C(=O)C(=O)NC2CC2)C(=O)N1 [Example 94, N-[4-chloro-2-[[(1S)-3-(cyclopropylamino)-1-[[(3S,5R)-5-methyl-2-oxo-pyrrolidin-3-yl]methyl]-2,3-dioxo-propyl]carbamoyl]phenyl]-5-(trifluoromethyl)pyridine-3-carboxamide]  10.6 nM
17. CO[C@@H](C)C(=O)Nc1ccc(Cl)cc1C(=O)N[C@@H](C[C@@H]1C[C@@H](C)NC1=O)C(=O)C(=O)NC1CC1 [Example 166, 5-chloro-N-[(1S)-3-(cyclopropylamino)-1-[[(3S,5R)-5-methyl-2-oxo-pyrrolidin-3-yl]methyl]-2,3-dioxo-propyl]-2-[[(2S)-2-methoxypropanoyl]amino] benzamide]  10.1 nM
18. CNC(=O)C(=O)[C@H](C[C@@H]1C[C@@H](C)NC1=O)NC(=O)c1cc(Cl)ccc1NC(=O)C12CC(C(F)(F)F)(C1)C2 [Example 46, N-[4-chloro-2-[[(1S)-3-(methylamino)-1-[[(3S,5R)-5-methyl-2-oxo-pyrrolidin-3-yl]methyl]-2,3-dioxo-propyl]carbamoyl]phenyl]-3-(trifluoromethyl)bicyclo[1.1.1] pentane-1-carboxamide]  8.9 nM
19. CNC(=O)C(=O)[C@H](C[C@@H]1CCNC1=O)NC(=O)c1cc(Cl)ccc1NC(=O)OCC(F)(F)F [Example 163, 2,2,2-trifluoroethyl N-[4-chloro-2-[[(1S)-3-(methylamino)-2,3-dioxo-1-[[(3S)-2-oxopyrrolidin-3-yl]methyl]propyl]carbamoyl]phenyl]carbamate]  8.6 nM
20. CNC(=O)C(=O)[C@H](C[C@@H]1C[C@@H](C)NC1=O)NC(=O)c1cc(Cl)ccc1NC(=O)C1CC1 [Example 122]  8.1 nM
21. C[C@@H]1C[C@@H](C[C@H](NC(=O)c2cc(Cl)ccc2NC(=O)C2CC(F)(F)C2)C(=O)C(=O)NC2CC2)C(=O)N1 [Example 59, 5-chloro-N-[(1S)-3-(cyclopropylamino)-1-[[(3S,5R)-5-methyl-2-oxo-pyrrolidin-3-yl]methyl]-2,3-dioxo-propyl]-2-[(3,3-difluorocyclobutanecarbonyl)amino]benzamide]  8 nM
22. CNC(=O)C(=O)[C@H](C[C@@H]1CCNC1=O)NC(=O)c1cc(Cl)ccc1NC(=O)CCC(F)(F)F [Example 159, 5-chloro-N-[(1S)-3-(methylamino)-2,3-dioxo-1-[[(3S)-2-oxopyrrolidin-3-yl]methyl]propyl]-2-(4,4,4-trifluorobutanoylamino) benzamide]  7.9 nM
23. CC(OC(=O)Nc1ccc(Cl)cc1C(=O)N[C@@H](C[C@@H]1C[C@@H](C)NC1=O)C(=O)C(=O)NC1CC1)C(F)(F)F (stereo partly drawn) [Example 210, (2,2,2-trifluoro-1-methyl-ethyl) N-[4-chloro-2-[[(1S)-3-(cyclopropylamino)-1-[[(3S,5R)-5-methyl-2-oxo-pyrrolidin-3-yl]methyl]-2,3-dioxo-propyl]carbamoyl]phenyl] carbamate]  7.8 nM
24. COC(=O)Nc1ccc(Cl)cc1C(=O)N[C@@H](C[C@@H]1C[C@@H](C)NC1=O)C(=O)C(=O)NC1CC1 [Example 101, methyl N-[4-chloro-2-[(1S)-3-(cyclopropylamino)-1-[[(3S,5R)-5-methyl-2-oxo-pyrrolidin-3-yl]methyl]-2,3-dioxo-propyl]carbamoyl]phenyl] carbamate]  7.8 nM
25. CNC(=O)C(=O)[C@H](C[C@@H]1CCNC1=O)NC(=O)c1cc(F)ccc1NC(=O)c1ccnc(C(F)(F)F)c1 [Example 196, N-[4-fluoro-2-[[(1S)-3-(methylamino)-2,3-dioxo-1-[[(3S)-2-oxopyrrolidin-3-yl]methyl]propyl]carbamoyl]phenyl]-2-(trifluoromethyl)pyridine-4-carboxamide]  7.6 nM
26. O=C(NC1CC1)C(=O)[C@H](C[C@@H]1CCNC1=O)NC(=O)c1cc(Cl)ccc1NC(=O)C1CC(F)(F)C1 [Example 63, 5-chloro-N-[(1S)-3-(cyclopropylamino)-2,3-dioxo-1-[[(3S)-2-oxopyrrolidin-3-yl]methyl]propyl]-2-[(3,3-difluorocyclobutanecarbonyl)amino]benzamide]  7.3 nM
27. C[C@@H]1C[C@@H](C[C@H](NC(=O)c2cc(Cl)ccc2NC(=O)N2CCOCC2)C(=O)C(=O)NC2CC2)C(=O)N1 [Example 194, N-[4-chloro-2-[[(1S)-3-(cyclopropylamino)-1-[[(3S,5R)-5-methyl-2-oxo-pyrrolidin-3-yl]methyl]-2,3-dioxo-propyl]carbamoyl]phenyl] morpholine-4-carboxamide]  6.8 nM
28. CNC(=O)C(=O)[C@H](C[C@@H]1CCNC1=O)NC(=O)c1cc(Cl)ccc1NC(=O)OCc1ccccc1 [Example 174]  6.5 nM
29. C[C@@H]1C[C@@H](C[C@H](NC(=O)c2cc(Cl)ccc2NC(=O)C(C)(C)O)C(=O)C(=O)NC2CC2)C(=O)N1 [Example 165, 5-chloro-N-[(1S)-3-(cyclopropylamino)-1-[[(3S,5R)-5-methyl-2-oxo-pyrrolidin-3-yl]methyl]-2,3-dioxo-propyl]-2-[(2-hydroxy-2-methyl-propanoyl)amino]benzamide]  6.3 nM
